Each block holds one compound with its values, some of them ahead of it.
Experiments:
Insulin receptor = Insulin receptor (Homo sapiens, UniProt P06213); experiment: Inhibition of IR
Cytochrome P450 2D6 = Cytochrome P450 2D6 (Homo sapiens, UniProt P10635); experiment: Inhibition of CYP2D6; format: ADME
Cytochrome P450 2C9 = Cytochrome P450 2C9 (Homo sapiens, UniProt P11712); experiment: Inhibition of CYP2C9; format: ADME
Cytochrome P450 3A4 = Cytochrome P450 3A4 (Homo sapiens, UniProt P08684); experiment: Inhibition of CYP3A4; format: ADME
Sequence of Cytochrome P450 3A4 (P08684 whole entry): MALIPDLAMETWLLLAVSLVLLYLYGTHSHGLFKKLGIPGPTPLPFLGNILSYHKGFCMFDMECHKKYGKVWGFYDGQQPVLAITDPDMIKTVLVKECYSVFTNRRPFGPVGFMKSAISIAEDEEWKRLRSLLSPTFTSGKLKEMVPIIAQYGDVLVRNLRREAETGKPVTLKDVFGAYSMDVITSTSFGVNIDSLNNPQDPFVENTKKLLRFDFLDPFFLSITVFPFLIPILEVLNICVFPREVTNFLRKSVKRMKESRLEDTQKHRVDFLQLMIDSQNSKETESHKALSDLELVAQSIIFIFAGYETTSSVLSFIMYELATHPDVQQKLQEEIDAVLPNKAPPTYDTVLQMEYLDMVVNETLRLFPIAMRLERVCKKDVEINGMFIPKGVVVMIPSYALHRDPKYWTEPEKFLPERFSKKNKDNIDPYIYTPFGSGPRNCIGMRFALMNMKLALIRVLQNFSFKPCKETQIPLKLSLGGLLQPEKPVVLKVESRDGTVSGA

[1] = target: ALK tyrosine kinase receptor (Homo sapiens, UniProt Q9UM73); experiment: Inhibition of human recombinant ALK assessed as phosphorylated product using PLC-gamma/GST substrate by modified ELISA method
Sequence of ALK tyrosine kinase receptor (Q9UM73 whole entry): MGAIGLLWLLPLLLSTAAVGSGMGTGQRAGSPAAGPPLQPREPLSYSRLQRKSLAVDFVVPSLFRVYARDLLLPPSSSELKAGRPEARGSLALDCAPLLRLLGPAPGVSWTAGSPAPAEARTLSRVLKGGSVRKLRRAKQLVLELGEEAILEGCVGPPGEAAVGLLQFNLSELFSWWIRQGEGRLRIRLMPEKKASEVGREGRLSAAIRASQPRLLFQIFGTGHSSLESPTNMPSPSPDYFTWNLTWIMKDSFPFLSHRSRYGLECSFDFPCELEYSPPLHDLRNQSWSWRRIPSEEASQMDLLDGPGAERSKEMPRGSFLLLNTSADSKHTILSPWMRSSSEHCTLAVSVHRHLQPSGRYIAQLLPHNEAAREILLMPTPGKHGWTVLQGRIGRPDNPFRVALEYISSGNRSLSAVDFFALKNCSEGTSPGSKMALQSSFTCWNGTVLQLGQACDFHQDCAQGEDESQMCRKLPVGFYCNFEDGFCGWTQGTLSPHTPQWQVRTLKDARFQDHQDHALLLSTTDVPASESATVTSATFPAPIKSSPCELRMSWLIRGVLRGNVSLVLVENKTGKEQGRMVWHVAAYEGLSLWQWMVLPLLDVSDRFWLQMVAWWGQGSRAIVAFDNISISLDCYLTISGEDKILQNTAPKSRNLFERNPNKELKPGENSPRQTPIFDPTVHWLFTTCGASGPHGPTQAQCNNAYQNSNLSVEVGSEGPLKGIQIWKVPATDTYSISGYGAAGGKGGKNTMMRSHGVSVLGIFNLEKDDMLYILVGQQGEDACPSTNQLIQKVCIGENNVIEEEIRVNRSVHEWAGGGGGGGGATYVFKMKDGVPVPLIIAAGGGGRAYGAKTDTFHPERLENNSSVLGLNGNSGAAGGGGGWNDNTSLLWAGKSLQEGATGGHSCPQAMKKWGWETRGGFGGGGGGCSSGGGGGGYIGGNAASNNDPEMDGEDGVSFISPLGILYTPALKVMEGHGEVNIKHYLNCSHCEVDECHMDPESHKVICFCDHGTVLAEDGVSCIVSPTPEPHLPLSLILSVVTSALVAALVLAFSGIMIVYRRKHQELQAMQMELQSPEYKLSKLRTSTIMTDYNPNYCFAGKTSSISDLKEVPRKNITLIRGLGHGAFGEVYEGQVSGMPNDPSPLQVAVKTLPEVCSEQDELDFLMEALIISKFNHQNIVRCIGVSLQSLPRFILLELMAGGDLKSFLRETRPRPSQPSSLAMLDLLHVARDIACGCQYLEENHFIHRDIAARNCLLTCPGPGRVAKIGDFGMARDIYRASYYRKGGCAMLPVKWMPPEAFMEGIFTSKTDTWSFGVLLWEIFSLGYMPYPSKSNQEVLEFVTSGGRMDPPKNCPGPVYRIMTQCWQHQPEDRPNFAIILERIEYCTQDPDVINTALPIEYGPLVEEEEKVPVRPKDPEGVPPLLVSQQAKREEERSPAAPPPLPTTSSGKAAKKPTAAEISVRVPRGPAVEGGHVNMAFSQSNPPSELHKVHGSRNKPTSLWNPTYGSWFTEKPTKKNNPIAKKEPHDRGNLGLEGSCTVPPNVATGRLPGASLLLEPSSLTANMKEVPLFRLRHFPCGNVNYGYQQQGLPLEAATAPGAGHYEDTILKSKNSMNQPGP

Cytochrome P450 2C19 = Cytochrome P450 2C19 (Homo sapiens, UniProt P33261); experiment: Inhibition of CYP2C19; format: ADME
Sequence of Cytochrome P450 2C19 (P33261 whole entry): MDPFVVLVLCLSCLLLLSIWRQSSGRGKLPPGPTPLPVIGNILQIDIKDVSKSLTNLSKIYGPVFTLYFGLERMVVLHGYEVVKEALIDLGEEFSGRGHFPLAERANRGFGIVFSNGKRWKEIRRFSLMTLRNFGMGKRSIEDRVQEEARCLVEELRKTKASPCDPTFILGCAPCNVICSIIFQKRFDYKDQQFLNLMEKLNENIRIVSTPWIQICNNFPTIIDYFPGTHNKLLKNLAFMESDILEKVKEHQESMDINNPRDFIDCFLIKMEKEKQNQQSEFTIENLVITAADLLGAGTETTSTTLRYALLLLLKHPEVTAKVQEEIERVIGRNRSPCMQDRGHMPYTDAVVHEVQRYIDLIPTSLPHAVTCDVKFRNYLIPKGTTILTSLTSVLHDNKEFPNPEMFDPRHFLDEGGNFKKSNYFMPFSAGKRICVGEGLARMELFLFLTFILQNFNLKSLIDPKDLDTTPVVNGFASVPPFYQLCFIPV

[2] = Half-life in rat liver microsomes; format: ADME, Microsome
[3] = Half-life in mouse liver microsomes; format: ADME, Microsome
[4] = Half-life in human liver microsomes; format: ADME, Microsome
Cytochrome P450 1A2 = target: T1, Cytochrome P450 1A2 (Homo sapiens, UniProt P05177); experiment: Inhibition of CYP1A2; format: ADME
T1 sequence (P05177 whole entry): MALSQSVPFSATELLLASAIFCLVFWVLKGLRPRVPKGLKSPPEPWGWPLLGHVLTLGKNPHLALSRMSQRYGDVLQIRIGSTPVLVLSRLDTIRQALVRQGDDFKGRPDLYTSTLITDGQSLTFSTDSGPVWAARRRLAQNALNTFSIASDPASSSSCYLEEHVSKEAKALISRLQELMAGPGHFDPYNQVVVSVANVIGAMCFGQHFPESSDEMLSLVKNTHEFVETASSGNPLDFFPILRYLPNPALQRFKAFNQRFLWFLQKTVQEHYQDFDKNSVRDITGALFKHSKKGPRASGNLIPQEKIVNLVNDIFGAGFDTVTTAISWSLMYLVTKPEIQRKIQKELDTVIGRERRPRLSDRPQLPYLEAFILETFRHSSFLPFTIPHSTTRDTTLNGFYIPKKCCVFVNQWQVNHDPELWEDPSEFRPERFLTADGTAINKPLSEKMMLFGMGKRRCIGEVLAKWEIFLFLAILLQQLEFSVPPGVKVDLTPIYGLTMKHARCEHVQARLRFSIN

[5] = Oral bioavailability in Sprague-Dawley rat; format: ADME, organism-based; conditions: in vivo
[6] = Half-life in iv dosed Sprague-Dawley rat; format: ADME, organism-based; conditions: in vivo
[7] = Clearance in iv dosed Sprague-Dawley rat; format: ADME, organism-based; conditions: in vivo

Sequence of Insulin receptor (P06213 28-758 limits assumed): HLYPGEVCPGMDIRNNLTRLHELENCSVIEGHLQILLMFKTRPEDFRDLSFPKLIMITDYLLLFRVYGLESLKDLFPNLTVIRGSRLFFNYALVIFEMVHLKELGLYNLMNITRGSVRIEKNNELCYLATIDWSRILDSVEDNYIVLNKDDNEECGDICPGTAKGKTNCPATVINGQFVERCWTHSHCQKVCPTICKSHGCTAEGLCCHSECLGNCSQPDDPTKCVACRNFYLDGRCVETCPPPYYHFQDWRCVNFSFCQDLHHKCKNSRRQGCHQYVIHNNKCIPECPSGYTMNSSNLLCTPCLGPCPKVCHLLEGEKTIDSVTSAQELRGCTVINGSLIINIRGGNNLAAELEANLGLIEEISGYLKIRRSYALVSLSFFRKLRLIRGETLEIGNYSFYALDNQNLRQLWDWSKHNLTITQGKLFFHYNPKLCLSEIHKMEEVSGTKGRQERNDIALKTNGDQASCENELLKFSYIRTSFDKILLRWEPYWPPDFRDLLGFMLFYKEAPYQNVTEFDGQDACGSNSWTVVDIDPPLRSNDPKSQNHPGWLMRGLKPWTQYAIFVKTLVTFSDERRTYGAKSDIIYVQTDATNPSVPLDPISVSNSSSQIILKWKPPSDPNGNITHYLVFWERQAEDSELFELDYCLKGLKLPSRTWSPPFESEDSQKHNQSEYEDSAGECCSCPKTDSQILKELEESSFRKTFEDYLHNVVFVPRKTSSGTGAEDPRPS
Sequence of Insulin receptor (P06213 763-1382 limits assumed): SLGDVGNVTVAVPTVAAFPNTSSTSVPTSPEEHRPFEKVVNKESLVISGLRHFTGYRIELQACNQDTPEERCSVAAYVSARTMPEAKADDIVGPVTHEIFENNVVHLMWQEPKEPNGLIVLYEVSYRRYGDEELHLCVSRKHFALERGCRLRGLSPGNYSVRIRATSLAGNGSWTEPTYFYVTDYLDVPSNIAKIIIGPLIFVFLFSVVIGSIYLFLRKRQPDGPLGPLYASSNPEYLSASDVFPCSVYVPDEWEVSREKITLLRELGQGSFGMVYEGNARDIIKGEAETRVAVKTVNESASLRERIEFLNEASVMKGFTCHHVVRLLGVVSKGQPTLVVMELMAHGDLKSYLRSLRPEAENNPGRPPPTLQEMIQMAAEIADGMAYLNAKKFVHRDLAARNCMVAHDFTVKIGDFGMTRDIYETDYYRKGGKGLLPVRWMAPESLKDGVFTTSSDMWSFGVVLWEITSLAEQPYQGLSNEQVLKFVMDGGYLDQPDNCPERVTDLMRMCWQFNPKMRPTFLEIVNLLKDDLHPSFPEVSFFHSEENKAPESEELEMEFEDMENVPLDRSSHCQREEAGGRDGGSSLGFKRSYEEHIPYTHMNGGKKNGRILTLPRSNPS
Sequence of Cytochrome P450 2D6 (P10635 whole entry): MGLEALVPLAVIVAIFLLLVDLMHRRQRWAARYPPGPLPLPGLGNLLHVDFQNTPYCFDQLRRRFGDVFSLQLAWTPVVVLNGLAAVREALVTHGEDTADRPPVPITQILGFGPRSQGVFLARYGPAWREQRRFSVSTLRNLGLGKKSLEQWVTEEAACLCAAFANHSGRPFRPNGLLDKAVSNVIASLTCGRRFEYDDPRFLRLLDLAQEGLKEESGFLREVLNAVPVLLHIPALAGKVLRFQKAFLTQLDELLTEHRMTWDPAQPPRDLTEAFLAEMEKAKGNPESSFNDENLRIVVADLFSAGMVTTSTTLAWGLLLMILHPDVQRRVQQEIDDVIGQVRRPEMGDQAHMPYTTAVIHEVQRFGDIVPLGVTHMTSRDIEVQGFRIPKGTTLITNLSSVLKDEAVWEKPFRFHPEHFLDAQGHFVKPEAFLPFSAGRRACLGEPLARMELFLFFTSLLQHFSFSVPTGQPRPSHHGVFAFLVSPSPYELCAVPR
Sequence of Cytochrome P450 2C9 (P11712 whole entry): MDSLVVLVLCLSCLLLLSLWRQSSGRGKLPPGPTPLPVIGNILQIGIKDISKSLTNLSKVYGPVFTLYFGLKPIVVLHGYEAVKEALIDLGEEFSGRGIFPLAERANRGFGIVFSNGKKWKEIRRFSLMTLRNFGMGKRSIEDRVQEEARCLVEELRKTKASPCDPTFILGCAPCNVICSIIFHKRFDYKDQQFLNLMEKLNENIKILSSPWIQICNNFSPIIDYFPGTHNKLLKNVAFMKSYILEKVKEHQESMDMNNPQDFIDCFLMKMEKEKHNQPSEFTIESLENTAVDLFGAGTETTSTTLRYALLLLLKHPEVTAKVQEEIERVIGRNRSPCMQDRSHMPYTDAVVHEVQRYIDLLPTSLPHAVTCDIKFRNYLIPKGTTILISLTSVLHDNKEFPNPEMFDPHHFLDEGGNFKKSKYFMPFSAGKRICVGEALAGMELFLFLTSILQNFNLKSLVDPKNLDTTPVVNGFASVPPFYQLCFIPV

Structure (SMILES): CN1CCN(c2ccc(Nc3ncc4ccc(-c5ccccc5N(C)S(C)(=O)=O)n4n3)cc2)CC1
IC50 (Insulin receptor): 366 nM
IC50 (Cytochrome P450 2D6): > 30000 nM
IC50 (Cytochrome P450 2C9): > 30000 nM
IC50 (Cytochrome P450 3A4): 14600 nM
IC50 [1]: 7 nM
IC50 (Cytochrome P450 2C19): > 30000 nM
half-life [2]: 21 min
half-life [3]: 30 min
half-life [4]: 40 min
IC50 (Cytochrome P450 1A2): > 30000 nM

Structure (SMILES): COc1cc(Nc2ncc3ccc(-c4ccccc4)n3n2)cc(OC)c1OC
IC50 (Insulin receptor): 295 nM
IC50 [1]: 212 nM

Structure (SMILES): COCCN1CCc2ccc(Nc3ncc4ccc(-c5ccccc5)n4n3)cc2CC1
IC50 (Insulin receptor): 19 nM
IC50 [1]: 38 nM

Continued, values first:

IC50 (Insulin receptor): 194 nM
IC50 [1]: > 2000 nM
Structure (SMILES): c1ccc(-c2ccc3cnc(Nc4ccc(N5CCOCC5)cc4)nn23)cc1

IC50 (Insulin receptor): 35 nM
IC50 [1]: 48 nM
Structure (SMILES): CN1CCN(c2ccc(Nc3ncc4ccc(-c5ccccc5)n4n3)cc2)CC1

IC50 (Insulin receptor): 123 nM
bioavailability [5]: 4%
half-life [6]: 30 min
IC50 (Cytochrome P450 2D6): > 30000 nM
IC50 (Cytochrome P450 2C9): > 30000 nM
IC50 (Cytochrome P450 3A4): 9400 nM
IC50 [1]: 20 nM
IC50 (Cytochrome P450 2C19): > 30000 nM
half-life [2]: 14 min
half-life [3]: 8 min
half-life [4]: 40 min
clearance [7]: 60 mL/min/kg
IC50 (Cytochrome P450 1A2): > 30000 nM
Structure (SMILES): COc1ccccc1-c1ccc2cnc(Nc3ccc(N4CCN(C)CC4)cc3)nn12

IC50 (Insulin receptor): 326 nM
IC50 [1]: 726 nM
Structure (SMILES): CN1CCN(c2ccc(Nc3ncc4ccc(-c5ccccc5C(N)=O)n4n3)cc2)CC1

IC50 (Insulin receptor): > 2000 nM
IC50 [1]: 883 nM
Structure (SMILES): CN1CCN(c2ccc(Nc3ncc4ccc(-c5ccccc5S(C)(=O)=O)n4n3)cc2)CC1

— ChEMBL document CHEMBL1821719, “2,7-disubstituted-pyrrolo[2,1-f][1,2,4]triazines: new variant of an old template and application to the discovery of anaplastic lymphoma kinase (ALK) inhibitors with in vivo antitumor activity” (J Med Chem, 2011)
